Series [1] concerns polarized human airway epithelial cells. The following applies: hypotonic EGTA solution alone; cited from earlier work.
Series [2] relates to Balb/c mice. The series can be described thus: Safety of anthracyclines in Balb/c mice. In kind it is in vivo, mouse. The following applies: intranasal, 10% HDE. From the text: (§1) Animals were followed for seven days post dose.
Safety endpoints included morbidity and mortality, clinical observations, body weights, gross necropsy observations and histopathology. Transduction endpoints included luciferase and GFP analysis.

Series [3] deals with HeLa cells. The series can be described thus: AAV2 FLAG-Luc transduction of HeLa cells (luciferase screen). Type of series: cell-based, human. From the text:
A. To screen for agents that enhance rAAV transduction, any number of cells can be used. A range of concentrations of the agent to be tested can be determined based on, for instance desirable profiles of the agent, desirable toxicity profiles of the agent and/or concentration of the agents employed in vivo. The usefulness of the cell type chosen for the screen can be confirmed by testing compounds, e.g., proteasome inhibitors such as LLnL and ZLL which are known to increase rAAV transduction. For example, a AAV2 FLAG-Luc vector was employed to transduce HeLa, ferret fibroblasts, IB3 and Huh (liver) cells in the presence or absence of the proteasome inhibitor MG132. MG132 was confirmed to enhance AAV transduction in all cell types tested: HeLa cell transduction was enhanced about 500-fold at 80 μM, and 200-fold at 40 μM, MG132; ferret fibroblast cell transduction was enhanced about 200-fold at 20 μM, and 17-fold at 4 μM, MG132; IB3-1 cell transduction was enhanced about 30 to 70-fold at 20 to 80 μM MG132; and Huh-7 cell transduction was enhanced about 15-fold at 20 to 80 μM MG132. There was no difference in rAAV transduction efficiency in HeLa cells when either DMSO or ETOH was used as a vehicle for MG132. B. HeLa cells were selected to screen for additional agents that enhance rAAV transduction, although any cell strain or line; or primary cells, may be employed. […] The range of concentrations of the agents to be tested were selected based on solubility profiles, toxicity profiles and/or concentrations previously employed in vivo.
HeLa cells were infected for 2 hours with an MOI of 100 rAAV in the presence of agents, e.g., ritonavir (Norvir) (1, 10 and 100 μM), cyclosporin A (2.5, 25 and 250 μg/ml), epoxomicin (1, 10 and 50 μM), alcacinomycin A (5, 50 or 500 μM), chymostatin (1, 10 and 100 μM), bestatin (1, 10 and 100 μM), doxorubicin (adriamycin) (0.1, 1 and 10 μM), camptothecin (camptosar) (1, 10 and 100 μM), eicosapentanoic acid (1, 10 and 100 μM), tannic acid (2, 20, 200 and 2000 μM), simvastatin, prodrug (2, 20 and 200 μM), cisplatin (0.2, 2 and 20 μg/mL), and chloroquine (4, 40 and 400 μM). Forty-eight hours after infection, cells were harvested for analysis. rAAV transduction was measured by removing the media from the cell cultures, adding 100 μL reporter lysis buffer (RLB) and freezing. The supernatant was thawed and transferred to microfuge tubes, freeze thawed an additional 2 times, clarified by centrifugation for 10 minutes and then analyzed for reporter gene expression on the lumometer. Protein was determined by Bradford analysis and results were expressed as relative light units per mg protein (RLU/mg).
Based on results with doxorubicin, a small number of FDA approved anthracyclines were tested for their relative in vitro and in vivo activities on AAV transduction. HeLa cells were infected with 100 ppc AAV2FLAG-Luc for 2 hours in the presence of different anthracyclines, e.g., doxorubicin, daunarubicin (Cerubidine), epirubicin (Ellence™), and idarubicin (Idamycin®), and cells harvested 48 hours later. The anthracyclines were pharmaceutical grade, and prepared according to the manufacturer's instructions. Prior to use, the agents were diluted in sterile water to an equal mass, e.g., 0.6 μg/mL, 3 μg/mL and 6 μg/mL. For example, 3 μg/mL idamycin increased luciferase expression by over 5000-fold while doxorubin increased luciferase expression by 58-fold. Generally, the potency was as follows: idarubicin>daunarubicin>epirubicin>doxorubicin.

The test system of series [4] is mouse lung. The series can be described thus: Intranasal AAV2-Luc with anthracyclines in Balb/c mice (lung luciferase). Type of series: in vivo. The conditions noted are these: 10% HDE intranasal, day 7.
From the text: as §1
The dose of modulator was based on the Human Dose Equivalent (HDE) and is summarized below in Table 4. For intranasal dose administration, the dose was held constant at 10% of the HDE.
On the day of sacrifice, the left lung was clamped off at the level of the extrapulmonary bronchi, removed and frozen on dry ice. The left lung was homogenized and processed for luciferase expression using Promega's luciferase assay system (Madison, Wis.). Luminescence was measured using the Berthold AutoLumat LB953 instrument. Samples were normalized for total protein using Pierce's Coomassie Plus Protein Assay Reagent (Rockford, Ill.).

For the molecule `O=C(O)CN(CCOCCOCCN(CC(=O)O)CC(=O)O)CC(=O)O` [EGTA], the “increase of AAV transduction from the apical surface” value in series [1] is 7 to 10 fold.

For the molecule `CC(=O)[C@]1(O)Cc2c(O)c3c(c(O)c2[C@@H](O[C@H]2C[C@H](N)[C@H](O)[C@H](C)O2)C1)C(=O)c1ccccc1C3=O` [Idamycin, idarubicin], in series [2] (7 days), the “mortality and clinical observations” value is “early mortality of some animals, ruffled hair coats and sick mice”. The body weight result in series [2] (over the week) is recorded as “lost considerable body weight”. Further, the “increase in luciferase expression” value in series [3] (3 μg/mL, 100 ppc AAV2FLAG-Luc, harvest 48 hours) was “over 5000 fold”. In addition, the “order of potency among anthracyclines” value in series [3] (0.6, 3 and 6 μg/mL) is “idarubicin>daunarubicin>epirubicin>doxorubicin”. Moreover, the “Fold Increase in luciferase expression” value in series [4] (both sexes) is given as 90; in series [4] (female), 57; in series [4] (male), 111. For the same molecule, the results for the “luciferase expression, Average” value in series [4] (both sexes), in series [4] (female) and in series [4] (male) were 5.06E+05, 2.02E+05 and 8.11E+05, respectively.

These data come from patent US20080206198A1, “Compounds and methods for pharmico-gene therapy of epithelial sodium channel associated disorders” (priority 2003, published 2008).
